# Source: article PMC7367925, “The EU-ToxRisk method documentation, data processing and chemical testing pipeline for the regulatory use of new approach methods” (Archives of Toxicology, 2020)
# What was measured:
# [1] = tested on: U-2 OS reporter cell lines battery; assay: CALUX reporter gene assay battery as a whole; conditions: all CALUX assays, 13 concentrations, 24 h exposure
# [2] = target: T1, Aryl Hydrocarbon receptor (Rattus norvegicus, UniProt P41738); assay: DR CALUX / AhR CALUX (rat hepatoma H-4-II-E cells); type: cell-based; conditions: 24 h exposure, lowest effect level PC10, means from 3 assay runs
# T1 construct: host or cells: rat hepatoma H-4-II-E (ATCC CRL-1548)
# T1 sequence (P41738 10-853): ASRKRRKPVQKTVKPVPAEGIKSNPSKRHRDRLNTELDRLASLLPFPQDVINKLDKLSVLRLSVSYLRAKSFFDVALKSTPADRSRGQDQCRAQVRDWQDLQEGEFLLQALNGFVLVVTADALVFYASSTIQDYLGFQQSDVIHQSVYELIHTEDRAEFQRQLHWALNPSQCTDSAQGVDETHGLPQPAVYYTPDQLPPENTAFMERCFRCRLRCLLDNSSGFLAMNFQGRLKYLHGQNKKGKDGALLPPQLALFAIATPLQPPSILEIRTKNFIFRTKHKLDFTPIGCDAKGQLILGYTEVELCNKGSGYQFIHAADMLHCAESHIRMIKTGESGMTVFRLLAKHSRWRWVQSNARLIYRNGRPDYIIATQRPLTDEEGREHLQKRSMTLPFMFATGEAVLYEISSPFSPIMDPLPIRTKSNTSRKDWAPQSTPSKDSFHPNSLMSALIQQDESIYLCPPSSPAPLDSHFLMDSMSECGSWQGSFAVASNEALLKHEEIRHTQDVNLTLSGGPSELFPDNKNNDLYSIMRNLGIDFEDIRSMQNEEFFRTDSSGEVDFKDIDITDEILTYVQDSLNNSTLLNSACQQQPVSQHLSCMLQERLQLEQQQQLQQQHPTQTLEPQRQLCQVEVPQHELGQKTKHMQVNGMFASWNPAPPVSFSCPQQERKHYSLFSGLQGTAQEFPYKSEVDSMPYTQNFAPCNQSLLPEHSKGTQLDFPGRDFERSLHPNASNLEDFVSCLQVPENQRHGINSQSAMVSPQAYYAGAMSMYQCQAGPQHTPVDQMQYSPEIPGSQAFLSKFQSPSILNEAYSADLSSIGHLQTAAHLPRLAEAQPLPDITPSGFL
# Pregnane X receptor = target: T2, Pregnane X receptor (Homo sapiens, UniProt O75469); assay: PXR CALUX; type: cell-based; conditions: 24 h exposure, lowest effect level PC10, means from 3 assay runs
# T2 construct: host or cells: U-2 OS
# T2 sequence (O75469 1-434): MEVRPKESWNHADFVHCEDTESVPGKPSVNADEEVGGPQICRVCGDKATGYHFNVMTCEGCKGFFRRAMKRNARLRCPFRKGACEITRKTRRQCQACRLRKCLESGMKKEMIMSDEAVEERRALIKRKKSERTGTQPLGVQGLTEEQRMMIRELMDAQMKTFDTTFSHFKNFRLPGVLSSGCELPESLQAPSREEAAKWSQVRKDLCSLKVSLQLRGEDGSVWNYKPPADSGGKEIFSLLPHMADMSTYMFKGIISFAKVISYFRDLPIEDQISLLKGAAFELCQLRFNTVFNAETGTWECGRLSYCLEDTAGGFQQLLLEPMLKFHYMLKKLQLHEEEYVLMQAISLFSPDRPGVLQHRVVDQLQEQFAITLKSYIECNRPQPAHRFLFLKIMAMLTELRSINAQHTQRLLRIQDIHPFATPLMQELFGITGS
# Description: (§1) After 24 h, exposure medium was prepared. […] All samples were tested in triplicates. […] Fig. SM_4. […] Fig. SM_4.
# (§2) Supplementary Material SM_4
# (§3) Overview of CALUX assays.
# (§4) This is defined as the concentration of test compound […]
# (§5) for an antagonist assay is a PC20.
# (§6) PC = positive control. FI = fold induction. PC10: concentration where test compound causes an activation equal to 10% of the maximum effect (positive control). PC20: concentration where test compound causes […]
# (§7) FI=1.5: concentration where test
# (§8) (A) exemplary graph of concentration- […]
# (§9) receptor antagonism assay with PC20 as lowest-effect-level. (C) exemplary graph for assay with 1.5 fold inductionas lowest effect level. 9
# Progesterone receptor = target: T3, Progesterone receptor (Homo sapiens, UniProt P06401); assay: PR-anti CALUX; type: cell-based; conditions: 24 h exposure, lowest effect level PC20, reference agonist at EC50, means from 3 assay runs
# T3 construct: host or cells: U-2 OS
# T3 sequence (P06401 1-933): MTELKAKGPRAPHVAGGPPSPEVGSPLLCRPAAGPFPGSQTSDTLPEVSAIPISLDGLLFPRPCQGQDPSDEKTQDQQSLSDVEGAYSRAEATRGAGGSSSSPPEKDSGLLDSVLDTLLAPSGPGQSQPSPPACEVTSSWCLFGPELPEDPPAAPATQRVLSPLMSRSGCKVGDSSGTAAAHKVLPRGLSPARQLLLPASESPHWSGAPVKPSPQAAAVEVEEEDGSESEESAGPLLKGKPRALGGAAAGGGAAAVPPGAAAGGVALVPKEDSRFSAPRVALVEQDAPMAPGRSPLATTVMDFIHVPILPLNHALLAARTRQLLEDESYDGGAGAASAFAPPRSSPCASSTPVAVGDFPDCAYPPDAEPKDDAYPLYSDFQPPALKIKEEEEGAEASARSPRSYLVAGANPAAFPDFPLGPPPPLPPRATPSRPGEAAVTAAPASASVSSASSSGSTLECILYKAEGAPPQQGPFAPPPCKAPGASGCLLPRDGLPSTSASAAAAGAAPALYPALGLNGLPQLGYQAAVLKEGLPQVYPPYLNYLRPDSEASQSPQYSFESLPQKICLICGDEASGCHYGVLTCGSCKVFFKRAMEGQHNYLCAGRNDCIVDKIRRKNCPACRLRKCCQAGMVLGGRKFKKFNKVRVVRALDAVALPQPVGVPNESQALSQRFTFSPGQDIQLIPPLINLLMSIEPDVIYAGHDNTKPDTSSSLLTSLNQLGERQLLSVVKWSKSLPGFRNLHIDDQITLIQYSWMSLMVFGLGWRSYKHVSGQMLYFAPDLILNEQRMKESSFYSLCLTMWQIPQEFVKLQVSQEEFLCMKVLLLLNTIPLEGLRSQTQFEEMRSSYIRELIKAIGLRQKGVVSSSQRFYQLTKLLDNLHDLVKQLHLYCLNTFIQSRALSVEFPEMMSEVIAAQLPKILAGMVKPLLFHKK
# Description: as §1, §2, §3, §4, §5, §6, §7, §8, §9
# U-2 OS cells = assay: Cytotox CALUX; conditions: 24 h exposure, lowest effect level PC20, means from 3 assay runs
# Estrogen receptor alpha = target: T4, Estrogen receptor alpha (Homo sapiens, UniProt P03372); type: cell-based; conditions: 24 h exposure, lowest effect level PC10, means from 3 assay runs
# T4 construct: host or cells: U-2 OS
# Description: as §1, §2, §3, §4, §5, §6, §7, §8, §9
# Glucocorticoid receptor = target: T5, Glucocorticoid receptor (Homo sapiens, UniProt P04150); type: cell-based; conditions: 24 h exposure, lowest effect level PC20, reference agonist at EC50, means from 3 assay runs
# T5 construct: host or cells: U-2 OS
# T5 sequence (P04150 1-777): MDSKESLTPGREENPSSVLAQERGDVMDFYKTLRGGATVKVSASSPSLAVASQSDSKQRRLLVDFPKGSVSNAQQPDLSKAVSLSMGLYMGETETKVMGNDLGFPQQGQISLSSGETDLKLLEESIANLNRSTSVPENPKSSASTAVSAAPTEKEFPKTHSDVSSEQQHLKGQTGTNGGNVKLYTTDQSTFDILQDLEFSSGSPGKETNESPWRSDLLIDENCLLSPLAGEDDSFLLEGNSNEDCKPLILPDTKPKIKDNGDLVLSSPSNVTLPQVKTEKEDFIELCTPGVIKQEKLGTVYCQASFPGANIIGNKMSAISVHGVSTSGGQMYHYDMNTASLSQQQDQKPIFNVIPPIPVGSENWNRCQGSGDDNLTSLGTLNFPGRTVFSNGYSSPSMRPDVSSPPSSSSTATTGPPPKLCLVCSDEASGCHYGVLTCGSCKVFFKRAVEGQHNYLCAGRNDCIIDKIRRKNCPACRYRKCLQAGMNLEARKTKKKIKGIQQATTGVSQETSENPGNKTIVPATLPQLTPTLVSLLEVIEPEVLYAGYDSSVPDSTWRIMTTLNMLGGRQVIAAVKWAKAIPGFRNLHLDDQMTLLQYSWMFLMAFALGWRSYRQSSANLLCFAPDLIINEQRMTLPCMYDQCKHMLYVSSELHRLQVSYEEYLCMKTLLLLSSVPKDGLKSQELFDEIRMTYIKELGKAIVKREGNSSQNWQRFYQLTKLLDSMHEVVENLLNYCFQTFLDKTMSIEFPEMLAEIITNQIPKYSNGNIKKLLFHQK
# Description: as §1, §2, §3, §4, §5, §6, §7, §8, §9
# [3] = tested on: Transcription of p21 inhibitor of cell cycle progression; assay: p21 CALUX; type: cell-based, human; conditions: 24 h exposure, lowest effect level PC10, means from 3 assay runs
# Description: as §1, §2, §3, §4, §5, §6, §7, §8, §9
# PPARα = target: T6, PPARα (Homo sapiens, UniProt Q07869); assay: PPARa CALUX; type: cell-based; conditions: 24 h exposure, lowest effect level PC10, means from 3 assay runs
# T6 construct: host or cells: U-2 OS
# T6 sequence (Q07869 1-468): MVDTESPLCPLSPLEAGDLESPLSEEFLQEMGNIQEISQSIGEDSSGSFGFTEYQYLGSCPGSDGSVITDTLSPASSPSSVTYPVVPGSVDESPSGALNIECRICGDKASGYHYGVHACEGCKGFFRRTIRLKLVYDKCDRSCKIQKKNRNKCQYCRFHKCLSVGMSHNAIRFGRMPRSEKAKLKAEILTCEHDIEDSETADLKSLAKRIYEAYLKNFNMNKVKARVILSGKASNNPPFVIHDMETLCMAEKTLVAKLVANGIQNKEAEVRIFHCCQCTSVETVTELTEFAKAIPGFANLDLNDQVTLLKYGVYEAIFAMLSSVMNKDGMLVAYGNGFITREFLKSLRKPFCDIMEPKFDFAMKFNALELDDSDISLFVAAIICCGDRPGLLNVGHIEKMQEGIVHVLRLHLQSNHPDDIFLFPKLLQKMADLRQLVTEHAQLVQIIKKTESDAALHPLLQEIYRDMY
# Description: as §1
# Cell line Endpoint effect Reference compound […]
# PPARa CALUX Peroxisomeproliferator activated receptor agonists PC10 GW7647 […]
# as §2, §3, §4, §5, §6, §7, §8, §9
# [4] = tested on: Endoplasmic reticulum stress; assay: ESRE CALUX; type: cell-based, human; conditions: 24 h exposure, lowest effect level PC10, means from 3 assay runs
# Description: as §1, §2, §3, §4, §5, §6, §7, §8, §9
# [5] = tested on: wnt/TCF pathway activation; assay: TCF CALUX; type: cell-based, human; conditions: 24 h exposure, lowest effect level FI=1.5, means from 3 assay runs
# T4 sequence (P03372 whole entry): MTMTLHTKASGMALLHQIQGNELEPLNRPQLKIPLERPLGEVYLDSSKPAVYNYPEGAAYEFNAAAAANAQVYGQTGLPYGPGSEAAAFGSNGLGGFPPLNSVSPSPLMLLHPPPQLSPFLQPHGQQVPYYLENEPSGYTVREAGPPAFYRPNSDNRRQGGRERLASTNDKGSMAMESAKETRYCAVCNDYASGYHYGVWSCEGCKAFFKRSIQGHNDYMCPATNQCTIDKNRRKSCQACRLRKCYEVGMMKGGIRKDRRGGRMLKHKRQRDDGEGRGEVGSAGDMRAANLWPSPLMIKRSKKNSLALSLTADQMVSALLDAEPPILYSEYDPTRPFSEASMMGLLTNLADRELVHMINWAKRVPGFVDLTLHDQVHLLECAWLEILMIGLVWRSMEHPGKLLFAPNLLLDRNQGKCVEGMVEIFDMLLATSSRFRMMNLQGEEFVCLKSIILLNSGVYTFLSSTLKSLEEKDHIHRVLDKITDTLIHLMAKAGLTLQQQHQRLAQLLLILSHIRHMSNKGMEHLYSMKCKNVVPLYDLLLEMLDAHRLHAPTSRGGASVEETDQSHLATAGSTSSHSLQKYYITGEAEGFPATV
SMILES,response profile over the CALUX battery (in words) [1],PoD AhR - ago [2],PoD PXR - ago (Pregnane X receptor),PoD PR - anta (Progesterone receptor),PoD cytotoxicity (U-2 OS cells),PoD Erα - ago (Estrogen receptor alpha),PoD GR - anta (Glucocorticoid receptor),PoD p21 [3],PoD PPARα - ago (PPARα),PoD ESRE [4],PoD TCF [5]
O=P(Oc1ccccc1)(Oc1ccccc1)Oc1ccccc1 [Triphenyl phosphate],only activated nuclear hormone receptor related assays,4.2 -log(M),6.1 -log(M),5.2 -log(M),4.0 -log(M),5.4 -log(M),4.8 -log(M),,,,
CCCC(CCC)C(=O)O [Valproic acid],,,4.0 -log(M),3.1 -log(M),,,,3.2 -log(M),4.0 -log(M),4.0 -log(M),4.0 -log(M)
